Test results taken from the NIST ThermoML archive (doi:10.1021/je049546h).
Numbers after ± are expanded uncertainties.

Tests used:
[1] = xn = mol fraction of the nth substance listed; settings: for mass density: Other PVT measurement; for Critical density: closed cell phase equilibration
[2] = Liquid

CCc1ccccc1 [ethylbenzene] + O=C=O
mass density [kg/m3], [1], Liquid
Settings	303.2 K	308.2 K	313.2 K	318.2 K	323.2 K	328.2 K	333.2 K
x1 = 0.0211	709 ± 11	665 ± 11	590 ± 12	–	–	–	–
x1 = 0.0384	741 ± 10	715 ± 10	673 ± 11	633 ± 11	583 ± 11	–	–
x1 = 0.0512	762 ± 10	735 ± 10	702 ± 10	671 ± 10	630 ± 10	603 ± 10	–
x1 = 0.0637	782 ± 10	761 ± 10	731 ± 10	703 ± 10	675 ± 10	642 ± 10	607 ± 10
x1 = 0.0751	790 ± 10	769 ± 10	748 ± 10	722 ± 10	697 ± 10	672 ± 10	646 ± 10
x1 = 0.0998	818 ± 10	799 ± 10	779 ± 10	760 ± 10	742 ± 10	723 ± 10	706 ± 10

[1], Liquid
Settings	Critical density [kg/m3]
x1 = 0.0225	520 ± 16
x1 = 0.0363	545 ± 16
x1 = 0.0488	580 ± 17

C=Cc1ccccc1 [styrene] + O=C=O
mass density [kg/m3], [1]
Settings	x1 = 0.0225	x1 = 0.0363	x1 = 0.0488	x1 = 0.0742	x1 = 0.101
303.2 K, Liquid	721 ± 11	755 ± 10	774 ± 10	805 ± 10	831 ± 10
308.2 K, Liquid	675 ± 11	721 ± 10	747 ± 10	781 ± 10	813 ± 10
313.2 K, Liquid	615 ± 12	683 ± 11	711 ± 10	758 ± 10	794 ± 10
318.2 K, Liquid	529 ± 12	635 ± 11	682 ± 10	734 ± 10	774 ± 10
321.2 K, Gas	500 ± 10	–	–	–	–
323.2 K, Liquid	–	582 ± 11	645 ± 10	711 ± 10	755 ± 10
328.2 K, Liquid	–	–	608 ± 10	685 ± 10	733 ± 10
330.2 K, Gas	–	527 ± 10	–	–	–
333.2 K, Gas	–	–	570 ± 10	–	–
333.2 K, Liquid	–	–	–	663 ± 10	713 ± 10

[1], Liquid
Settings	Critical density [kg/m3]
x1 = 0.0211	504 ± 15
x1 = 0.0384	546 ± 16
x1 = 0.0512	560 ± 17
x1 = 0.0637	590 ± 18

O=C=O [carbon dioxide]
[2]
Settings	Critical pressure [kPa]	Critical temperature [K]
Direct measurement	7360 ± 50	–
Visual observation in a stirred cell	–	304.2 ± 0.2
